This is an account of results in patent US20260297109A1, “COMPOUNDS AS SUMO ACTIVATING ENZYME INHIBITORS” (WIGEN BIOMEDICINE TECHNOLOGY (SHANGHAI) CO., LTD., priority 2022, published 2026).

Data set [1] addresses T1, SAE (Homo sapiens, UniProt Q9UBT2).
T1 construct: endogenous in cells; host or cells: HCT116
T1 sequence (Q9UBT2 1-640): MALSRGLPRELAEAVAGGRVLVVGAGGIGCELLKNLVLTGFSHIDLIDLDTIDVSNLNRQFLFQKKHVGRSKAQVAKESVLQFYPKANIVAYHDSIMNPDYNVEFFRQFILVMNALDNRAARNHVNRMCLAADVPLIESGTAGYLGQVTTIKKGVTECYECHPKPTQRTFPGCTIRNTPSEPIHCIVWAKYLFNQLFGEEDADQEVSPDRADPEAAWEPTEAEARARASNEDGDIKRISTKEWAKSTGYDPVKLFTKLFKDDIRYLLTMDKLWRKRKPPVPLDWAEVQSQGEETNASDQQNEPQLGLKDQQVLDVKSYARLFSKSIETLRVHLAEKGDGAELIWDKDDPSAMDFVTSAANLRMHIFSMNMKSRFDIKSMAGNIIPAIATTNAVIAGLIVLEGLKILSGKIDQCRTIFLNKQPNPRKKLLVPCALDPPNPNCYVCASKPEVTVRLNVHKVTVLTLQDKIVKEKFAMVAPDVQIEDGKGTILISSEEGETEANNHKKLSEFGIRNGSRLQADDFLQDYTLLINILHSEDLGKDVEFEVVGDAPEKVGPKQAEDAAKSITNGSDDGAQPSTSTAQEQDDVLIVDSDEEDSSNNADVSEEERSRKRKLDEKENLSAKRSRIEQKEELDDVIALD
T1 sequence (Q9UBE0 1-346): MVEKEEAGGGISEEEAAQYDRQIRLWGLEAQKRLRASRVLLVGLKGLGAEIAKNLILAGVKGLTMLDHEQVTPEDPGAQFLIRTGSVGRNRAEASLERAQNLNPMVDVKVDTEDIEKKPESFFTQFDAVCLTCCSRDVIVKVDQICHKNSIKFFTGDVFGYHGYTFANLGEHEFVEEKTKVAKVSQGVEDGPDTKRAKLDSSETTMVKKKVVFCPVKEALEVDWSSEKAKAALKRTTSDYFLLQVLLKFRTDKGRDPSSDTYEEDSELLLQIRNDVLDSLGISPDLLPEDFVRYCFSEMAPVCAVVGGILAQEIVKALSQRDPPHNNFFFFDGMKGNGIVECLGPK
Nature of the data set: SUMO IF: in vitro inhibitory activity assay against SAE in HCT116 cells (SUMO-2/3 immunofluorescence). It is filed as cell-based. The note with it: 6 h at 37° C. Summed up:
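SUMO-2/3 immunofluorescence (18H8 primary 1:400, FITC secondary 1:300) was read after 6 h compound exposure of HCT116 cells at 37 °C. Inhibition rate and IC50 derive from signal relative to DMSO-treated wells.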

The nature of data set [2]: In vivo pharmacokinetic experiment in CD-1 female mice, intravenous. The conditions noted are these: CD-1 mice; for Plasma AUClast: plasma (Table 4); for C0 / clearance / half-life / AUC(0-t) / Cmax / Vd / blood plasma ratio: mouse; for Vd: read-out: Vdss; for blood plasma ratio: in vivo, iv. The method, then: Biological Example 3. In Vivo Pharmacokinetic Experiment of Compound of the Present Disclosure
[…] The mice were fasted for at least 12 h before the administration and given food after the administration, and they were given ad libitum access to water during the experiment. On the day of the experiment, animals in the intravenous group were administered the corresponding compound by single injection via the tail vein at an administration volume of 0.2 mL/animal. The sample collection time was 0.083 h, 0.167 h, 0.5 h, 1 h, 2 h, 4 h, 8 h, and 24 h. About 150 μL of whole blood was collected through the submaxillary venous plexus at each time point (30 μL of whole blood was diluted with ultrapure water at a ratio of 1:3, and 120 μL of whole blood was centrifuged to obtain plasma) and used for concentration determination by high-performance liquid chromatography-tandem mass spectrometry (LC-MS/MS). All animals were sacrificed after the PK samples were collected at the last time point. The plasma concentration was processed using a non-compartmental model of Phoenix WinNonlin™ version 8.3 (Certara) pharmacokinetic software, and the pharmacokinetic parameters were calculated using a linear-log trapezoidal method.

[3] abbreviates: 2 mg/kg, 2 mpk, plasma, read-out: AUClast.
Setting [4] is: 2 mg/kg, 2 mpk, plasma, read-out: Cmax.
Setting [5] is: 2 mg/kg, 2 mpk, whole blood, read-out: Whole blood AUClast.
The mark [6] stands for this setting: 2 mg/kg, 2 mpk, whole blood, read-out: Whole blood Cmax.
Where [7] appears, read: 2 mg/kg, 2 mpk, read-out: Whole blood AUClast/plasma AUClast ratio.
Where [8] appears, read: 2 mg/kg, 2 mpk, read-out: Whole blood Cmax/plasma Cmax ratio.

Each structure is given as a SMILES string. Read-outs that look alike come from different tables or passages of the source. Where only a bound is given, the exact number is not on record here.

Broadly, the IC50 is the concentration that gives 50% inhibition. For orientation: clearance means a measure of how efficiently the substance is removed, as volume per time. A low value points to a low capacity for elimination. A word on the half-life: it is the time needed for the level to fall by half in the phase considered. A lower half-life goes with rapid decline. The Cmax is the peak of the concentration-time curve.

Consider `NS(=O)(=O)OC[C@H]1[C@H](F)[C@@H](Nc2ncncc2C(=O)c2cc3c(s2)CCC[C@]32NCCc3ccc(Cl)cc32)C[C@@H]1O` [Compound 90], for which, in data set [1] (numeric values), the IC50 came out at 21.1 nM. In addition, the “Plasma AUClast” value in data set [2] (2 mpk) was 615 ng·h/mL. Also, in data set [2] (2 mg/kg, 2 mpk, plasma), the C0 amounted to 431 ng/mL, the clearance is 53.1 mL/min/kg, the half-life was 4.73 h and the Vd worked out at 12.7 L/kg. Also, the AUC(0-t) in data set [2] (setting [3]) was found to be 615 ng·h/mL. The Cmax in data set [2] (setting [4]) stood at 331 ng/mL. Also, in data set [2] (setting [5]), the AUC(0-t) amounted to 46600 ng·h/mL. Moreover, in data set [2] (setting [6]), the highest concentration (Cmax) worked out at 13400 ng/mL. The blood plasma ratio in data set [2] (setting [7]) was found to be 75.7. Besides, in data set [2] (setting [8]), the blood plasma ratio worked out at 40.5.
Compound `NS(=O)(=O)OC[C@H]1[C@H](F)[C@@H](Nc2ncncc2C(=O)c2cc3c(s2)CC[C@]32NCCc3ccc(Cl)cc32)C[C@@H]1O` [Compound 132] showed an IC50 in data set [1] (numeric values) of 40.6 nM. For the same compound, the “Plasma AUClast” value in data set [2] (2 mpk) turned out to be 602 ng·h/mL. For the same compound, in data set [2] (2 mg/kg, 2 mpk, plasma), the C0 was 803 ng/mL, the clearance turned out to be 27.5 mL/min/kg, the half-life is 3.48 h and the Vd was found to be 5.45 L/kg. In addition, in data set [2] (setting [3]), the AUC(0-t) is 602 ng·h/mL. For the same compound, the Cmax in data set [2] (setting [4]) came to 438 ng/mL. Also, in data set [2] (setting [5]), the AUC(0-t) stood at 38200 ng·h/mL. Further, the Cmax in data set [2] (setting [6]) stood at 9270 ng/mL. For the same compound, in data set [2] (setting [7]), the blood plasma ratio was found to be 63.4. The blood plasma ratio in data set [2] (setting [8]) is 21.1.
The compound `NS(=O)(=O)OC[C@H]1[C@H](F)[C@@H](Nc2ncncc2C(=O)c2cc3c(s2)CCC[C@]32NCCc3ccc(F)cc32)C[C@@H]1O` [Compound 93] displayed an IC50 in data set [1] (numeric values) of 32.1 nM. In data set [2] (2 mpk), the “Plasma AUClast” value worked out at 448 ng·h/mL. For the same compound, in data set [2] (2 mg/kg, 2 mpk, plasma), the C0 was found to be 406 ng/mL, the clearance worked out at 71.1 mL/min/kg, the half-life is 1.88 h and the Vd is 9.18 L/kg. Also, the AUC(0-t) in data set [2] (setting [3]) came out at 448 ng·h/mL. Moreover, the Cmax in data set [2] (setting [4]) was 281 ng/mL. In data set [2] (setting [5]), the AUC(0-t) was 25100 ng·h/mL. The Cmax in data set [2] (setting [6]) came out at 13300 ng/mL. Moreover, in data set [2] (setting [7]), the blood plasma ratio stood at 56. In addition, the blood plasma ratio in data set [2] (setting [8]) came out at 47.4.
Turning to `NS(=O)(=O)OC[C@H]1[C@H](F)[C@@H](Nc2ncncc2C(=O)c2cc3c(s2)C=C[C@]32NCCc3ccc(Cl)cc32)C[C@@H]1O` [Compound 344], 20.7 nM corresponded to half-maximal inhibition in data set [1] (numeric values) (IC50). For the same compound, the “Plasma AUClast” value in data set [2] (2 mpk) came out at 345 ng·h/mL. In addition, in data set [2] (2 mg/kg, 2 mpk, plasma), the C0 came out at 249 ng/mL, the clearance came to 94.9 mL/min/kg, the half-life was 1.48 h and the Vd came out at 8.65 L/kg. The AUC(0-t) in data set [2] (setting [3]) came out at 345 ng·h/mL. Also, in data set [2] (setting [4]), the Cmax came to 299 ng/mL. Further, in data set [2] (setting [5]), the AUC(0-t) amounted to 17000 ng·h/mL. Moreover, the Cmax in data set [2] (setting [6]) came out at 7780 ng/mL. The blood plasma ratio in data set [2] (setting [7]) turned out to be 49.2. Also, the blood plasma ratio in data set [2] (setting [8]) turned out to be 26.
In turn, `Cc1sc(C(=O)c2cncnc2N[C@H]2C[C@H](O)[C@@H](COS(N)(=O)=O)[C@@H]2F)cc1[C@@H]1NCCc2ccc(Cl)cc21` [Compound 233] showed an IC50 in data set [1] (numeric values) of 42.6 nM. In addition, the “Plasma AUClast” value in data set [2] (1 mpk) was determined as 132 ng·h/mL. The C0 in data set [2] (1 mg/kg, 1 mpk, plasma) amounted to 77 ng/mL. The compound further showed a clearance in data set [2] (1 mg/kg, 1 mpk, plasma) of 103 mL/min/kg. The same compound gave a half-life in data set [2] (1 mg/kg, 1 mpk, plasma) of 3.63 h. Also, the AUC(0-t) in data set [2] (1 mg/kg, 1 mpk, plasma, read-out: AUClast) was 132 ng·h/mL; in data set [2] (1 mg/kg, 1 mpk, whole blood, read-out: Whole blood AUClast), 30100 ng·h/mL. In addition, the Cmax in data set [2] (1 mg/kg, 1 mpk, plasma, read-out: Cmax) amounted to 58 ng/mL; in data set [2] (1 mg/kg, 1 mpk, whole blood, read-out: Whole blood Cmax) it was 4430 ng/mL. For the same compound, in data set [2] (1 mg/kg, 1 mpk, plasma), the Vd worked out at 27.6 L/kg. Besides, the blood plasma ratio was determined as 228 in data set [2] (1 mg/kg, 1 mpk, read-out: Whole blood AUClast/plasma AUClast ratio) and 76.3 in data set [2] (1 mg/kg, 1 mpk, read-out: Whole blood Cmax/plasma Cmax ratio).
In data set [1] (class symbols), `NS(=O)(=O)OC[C@H]1[C@H](F)[C@@H](Nc2ncncc2C(=O)c2cc3c(s2)C(=O)C[C@@]32NCCc3ccc(Cl)cc32)C[C@@H]1O` [Compound 631] registered an IC50 above 200 nM.
The same measure, in the same setting: the result for `CC1CNC2(C=Cc3sc(C(=O)c4cncnc4N[C@H]4C[C@H](O)[C@@H](COS(N)(=O)=O)[C@@H]4F)cc32)c2cc(Cl)ccc21` (some centres unmarked) [Compound 1053] reads 50 to 200 nM; that for `N#Cc1ccc2c(c1)[C@]1(CCCc3sc(C(=O)c4cncnc4N[C@H]4C[C@H](O)[C@@H](COS(N)(=O)=O)[C@@H]4F)cc31)OCC2` [Compound 715], above 200 nM; that for `CN(C)c1sc(C(=O)c2cncnc2N[C@H]2C[C@H](O)[C@@H](COS(N)(=O)=O)[C@@H]2F)cc1C1NCCc2ccc(Cl)cc21` (some centres unmarked) [Compound 263], 50 to 200 nM.
Still for that read-out and setting: under `NS(=O)(=O)OC[C@H]1[C@H](F)[C@@H](Nc2ncncc2C(=O)c2cc3c(s2)COCC32NCCc3ccccc32)C[C@@H]1O` (some centres unmarked) [Compound 97] stands above 200 nM.
